{"source": "patent US12551482B2", "about": "“Aurora kinase inhibitors” (The Regents of the University of California, priority 2013, dated 2026)", "key": {"CP50-MEL-B": {"test_system": "CP50-MEL-B", "assay": "Cancer cell line profiling, Genomics of Drug Sensitivity Project", "settings": "read-out: CD532 EC50 (uM)"}, "HSC-39": {"test_system": "HSC-39", "assay": "Cancer cell line profiling, Genomics of Drug Sensitivity Project", "settings": "read-out: CD532 EC50 (uM)"}}, "data": [{"smiles": "O=C(Nc1ccc(Nc2nccc(Nc3cc(C4CCCC4)[nH]n3)n2)cc1)Nc1cccc(C(F)(F)F)c1", "note": "[CD532, 1-(4-((4-((5-cyclopentyl-1H-pyrazol-3-yl)amino)pyrimidin-2-yl)amino)phenyl)-3-(3-(trifluoromethyl)phenyl)urea]", "values": [{"measurement": "EC50", "setting": "CP50-MEL-B", "result": 0.323, "unit": "µM"}, {"measurement": "EC50", "setting": "HSC-39", "result": 0.103, "unit": "µM"}]}]}
